Test system: lactating Holstein cows in sub-clinical ketosis
Experiment: Change of daily milk production after a single intravenous injection in lactating Holstein cows with sub-clinical ketosis
Type: in vivo
Excerpt: Ten lactating Holstein cows in the immediate post-partum period of which milk production was 10-15% decreased in comparison with that of one week before the beginning of test due to sub-clinical ketosis were used. All cows were supplied with a complete feed for lactating cows composed of corn silage and concentrate containing grains, oil meals, animal proteins and vitamins/minerals. On the first day in the test, a solution containing 29 g of L-glutamine dissolved in 1 liter of distilled water for injection was injected into the cows through the cervical vein. The cows were then milked twice a day for one month, and the milk amount was measured. Ten lactating Holstein cows in sub-clinical ketosis were selected as negative controls according to the same criterion as in Example. On the first day in the test, 1 liter of saline was injected through the cervical vein as the negative control. On the other hand, nine lactating Holstein cows selected according to the same criterion as described above were used. On the first day in the test, 1 liter of a 25% dextrose solution was injected through the cervical vein as the positive control. Both the negative and positive controls were then supplied with the same complete feed as used in Example. The cows were then milked twice a day for one month, and the milk amount was measured. […] The X-axis indicates days after administration, and the Y-axis indicates the increment of the milk amount from that on the first day of the test. […] The increase of the milk amount was about 12 kg per day at maximum. […] Thus, the present invention can provide a novel method which is inexpensive and safe for preventing decrease of milk amount in mammals.

SMILES: NC(=O)CC[C@H](N)C(=O)O [glutamine, L-glutamine]
- milk amount increase on the average, from that on the first day of the test (single injection through the cervical vein on the first day (29 g L-glutamine in 1 liter, or 1 liter of 25% dextrose solution), milked twice a day for one month): 7.6 kg per day
- increase of the milk amount at maximum, from that on the first day of the test (single injection through the cervical vein on the first day (29 g L-glutamine in 1 liter, or 1 liter of 25% dextrose solution), milked twice a day for one month, FIG. 1): about 12 kg per day
- course of the change of the milk amount after administration (single injection through the cervical vein on the first day, followed for one month, FIG. 1): increased immediately after administration, and this tendency lasted even one month after administration

Source: patent US20040010042A1, “Method for preventing decrease of breast milk amount in mammals” (Ajinomoto Co., Inc., priority 2002, published 2004)
